Measurements reported in patent US10611732B2, “HIV replication inhibiting pyrimidines” (Janssen Pharmaceutica NV, priority 2001, dated 2020).
Read-outs that look alike come from different tables or passages of the source.

Experiments:
[1] = system: mock-infected MT-4 cells; assay: cytotoxicity in mock-infected MT-4 cells (MTT)
Method: (§1) A rapid, sensitive and automated assay procedure was used for the in vitro evaluation of anti-HIV agents. An […] T4-cell line, MT-4, which was previously shown (Koyanagi et al., Int. J Cancer, 36, 445-451, 1985) to be highly susceptible to and permissive for HIV infection, served as the target cell line. Inhibition of the HIV-induced cytopathic effect was used as the end point. The viability of both HIV- and mock-infected cells was assessed spectrophotometrically via the in situ reduction of 3-(4,5-dimethylthiazol-2-yl)-2,5-diphenyltetrazolium bromide (MTT). The 50% cytotoxic concentration (CC50 in M) was defined as the concentration of compound that reduced the absorbance of the mock-infected control sample by 50%. The percent protection achieved by the compound in HIV-infected cells was calculated by the following formula:
(§2) [formula] whereby (ODT)HIV is the optical density measured with a given concentration of the test compound in HIV-infected cells; (ODC)HIV is the optical density measured for the control untreated HIV-infected cells; (ODC)MOCK is the optical density measured for the control untreated mock-infected cells; all optical density values were determined at 540 nm. The dose achieving 50% protection according to the above formula was defined as the 50% inhibitory concentration (IC50 in M). The ratio of CC50 to IC50 was defined as the selectivity index (SI).
(§3) Table 6 lists the pIC50 (−log IC50), pCC50 (−log CC50) and pSI (pCC50-pIC50) values for the compounds of formula (I).

[2] = system: HIV; assay: microbe, parasite or virus in culture; conditions: for pIC50 (−log IC50): HIV-infected MT-4 cells; for pSI (pCC50-pIC50): selectivity index, ratio of CC50 to IC50, as log difference
Method: as §1, §2, §3

[3] = dose achieving 50% protection, MTT, OD 540 nm

Structure (SMILES) | pCC50 (−log CC50) [1] [M] | pIC50 (−log IC50) [2, 3] | pSI (pCC50-pIC50) [2] | pCC50 (−log CC50) ([1]; mock-infected MT-4 cells, concentration reducing absorbance of control by 50%, MTT) [M] | IC50 ([2]; Human immunodeficiency virus 1, MT4, read-out: pIC50 (−log IC50), HIV-infected MT-4 cells (converted), dose achieving 50% protection, MTT, OD 540 nm) [nM]
Cc1cc(/C=C/C#N)ccc1Oc1ccnc(Nc2ccc(C#N)cc2)n1 [Compound 230] | <4.0 | 9.2 | <−5.2 | – | –
CC(=CC#N)c1cc(C)c(Oc2ccnc(Nc3ccc(C#N)cc3)n2)c(C)c1 [Compound 213] | 4.8 | 9 | −4.2 | – | –
Cc1cc(CN(C)C=NC#N)cc(C)c1Oc1ccnc(Nc2ccc(C#N)cc2)n1 [Compound 174] | 5.3 | 8.8 | −3.5 | – | –
Cc1cc(/C=C/C#N)cc(Br)c1Nc1ccnc(Nc2ccc(C#N)cc2)n1 [Compound 248] | 5.7 | 9.3 | −3.5 | – | –
C/C(=C\C#N)c1cc(C)c(Nc2ccnc(Nc3ccc(C#N)cc3)n2)c(C)c1 [Compound 84] | 4.5 | 9.0 | −4.5 | – | –
CC(=NO)c1cc(C)c(Nc2ccnc(Nc3ccc(C#N)cc3)n2)c(C)c1 [Compound 45] | 5.0 | 8.7 | −3.8 | – | –
Cc1cc(/C=C\Br)cc(C)c1Oc1ccnc(Nc2ccc(C#N)cc2)n1 [Compound 177] | <4.0 | 8.3 | <−4.3 | – | –
Cc1cc(CC(C)C#N)cc(C)c1Nc1ccnc(Nc2ccc(C#N)cc2)n1 (stereo not drawn) [Compound 153] | 6.3 | 9.2 | −2.9 | – | –
C/C(C#N)=C/c1cc(C)c(Nc2ccnc(Nc3ccc(C#N)cc3)n2)c(C)c1 [Compound 151] | 5.5 | 9.1 | −3.6 | – | –
CC(C#N)=Cc1cc(C)c(Nc2ccnc(Nc3ccc(C#N)cc3)n2)c(Cl)c1 [Compound 233] | 5.7 | 9.3 | −3.6 | – | –
Cc1cc(C=C(C#N)CC#N)cc(C)c1Nc1ccnc(Nc2ccc(C#N)cc2)n1 (mixture of isomers) [Compound 147] | 5.7 | 9.4 | −3.7 | – | –
Cc1cc(/C=C/C(=O)N(C)C)cc(C)c1Oc1ccnc(Nc2ccc(C#N)cc2)n1 [Compound 219] | 5 | 9.1 | −4.1 | – | –
Cc1cc(/C(=C\C#N)C(C)C)cc(C)c1Nc1ccnc(Nc2ccc(C#N)cc2)n1 [Compound 150] | 4.8 | 8.8 | −4.0 | – | –
Cc1cc(/C=C/C#N)cc(Cl)c1Nc1ccnc(Nc2ccc(C#N)cc2)n1 [Compound 133] | 4 | 9.2 | −5.2 | – | –
Cc1cc(/C(=C/C#N)C(C)C)cc(C)c1Nc1ccnc(Nc2ccc(C#N)cc2)n1 [Compound 149] | 5.3 | 9.1 | −3.8 | – | –
Cc1cc(/C=C/C#N)cc(C)c1Nc1ccnc(Nc2ccc(C#N)cc2)n1 [Compound 1, 4-[[4-[[4-(2-cyanoethenyl)-2,6-dimethylphenyl]amino]-2-pyrimidinyl]amino]benzonitrile (E)] | – | – | −4.4 | 5.0 | 0.398
CCN(C)C(=O)/C=C/c1cc(C)c(Nc2ccnc(Nc3ccc(C#N)cc3)n2)c(C)c1 [Compound 158] | 5.5 | 8 | −2.5 | – | –
Cc1cc(/C=C/C#N)cc(-c2ccco2)c1Nc1ccnc(Nc2ccc(C#N)cc2)n1 [Compound 239] | 5 | 8.9 | −3.9 | – | –
Cc1cc(CN(C)CCC#N)cc(C)c1Nc1ccnc(Nc2ccc(C#N)cc2)n1 [Compound 75] | 5.0 | 9.0 | −4.0 | – | –
Cc1cc(C(C)CC#N)ccc1Oc1ccnc(Nc2ccc(C#N)cc2)n1 (stereo not drawn) [Compound 235] | <4.0 | 9.3 | <−5.3 | – | –
